Source: patent US9303042B2, “Triazolothienopyrimidine compound inhibitors of urea transporters and methods of using inhibitors” (The Regents of the University of California, priority 2012, dated 2016)
Read-outs that look alike come from different tables or passages of the source.

How the values were obtained:
TMEM16A = biological target: T1, TMEM16A (Homo sapiens, UniProt Q5XXA6); assay: TMEM16A calcium-activated chloride conductance by short-circuit current; type: cell-based; conditions: 100 μM
T1 construct: expressed in transfected cells
T1 sequence (Q5XXA6 1-986): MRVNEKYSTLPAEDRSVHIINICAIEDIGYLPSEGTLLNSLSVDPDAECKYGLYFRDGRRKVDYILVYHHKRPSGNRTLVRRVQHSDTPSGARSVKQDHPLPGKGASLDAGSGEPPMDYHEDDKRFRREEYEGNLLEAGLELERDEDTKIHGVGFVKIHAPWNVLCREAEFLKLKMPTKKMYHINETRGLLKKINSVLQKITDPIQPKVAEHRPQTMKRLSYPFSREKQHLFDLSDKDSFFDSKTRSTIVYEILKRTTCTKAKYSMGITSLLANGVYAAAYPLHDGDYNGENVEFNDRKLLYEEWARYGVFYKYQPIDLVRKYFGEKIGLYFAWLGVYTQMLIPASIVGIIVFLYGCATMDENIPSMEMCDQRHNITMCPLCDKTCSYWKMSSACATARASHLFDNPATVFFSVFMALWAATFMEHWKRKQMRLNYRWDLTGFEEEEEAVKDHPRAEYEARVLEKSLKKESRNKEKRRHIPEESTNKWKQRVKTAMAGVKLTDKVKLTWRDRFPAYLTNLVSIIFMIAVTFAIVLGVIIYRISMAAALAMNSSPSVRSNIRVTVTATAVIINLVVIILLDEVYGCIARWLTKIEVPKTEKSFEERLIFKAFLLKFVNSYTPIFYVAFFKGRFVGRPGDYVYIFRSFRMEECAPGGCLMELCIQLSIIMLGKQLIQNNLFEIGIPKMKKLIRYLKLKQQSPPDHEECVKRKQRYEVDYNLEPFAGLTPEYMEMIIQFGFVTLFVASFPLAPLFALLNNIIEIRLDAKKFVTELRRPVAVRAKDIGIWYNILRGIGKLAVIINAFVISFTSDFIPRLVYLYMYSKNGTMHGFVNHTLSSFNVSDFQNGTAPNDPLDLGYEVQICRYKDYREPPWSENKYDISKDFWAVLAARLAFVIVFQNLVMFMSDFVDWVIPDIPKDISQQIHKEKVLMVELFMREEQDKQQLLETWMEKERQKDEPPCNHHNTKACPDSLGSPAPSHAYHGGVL
Protocol: CFTR chloride conductance was measured by short-circuit current analysis in Fisher rat thyroid (FRT) cells stably expressing CFTR, as described (see, e.g., Ma et al., J. Biol. Chem. (2002), supra). CFTR chloride conductance was stimulated by forskolin and inhibited by a thiazolidinone compound that inhibits CFTR (CFTRinh-172). TMEM16A calcium-activated chloride conductance was measured by short-circuit current analysis in FRT cells stably expressing TMEM16A, as described (see, e.g., Namkung et al., J. Biol. Chem. 286:2365-2374, 2011. TMEM16A was stimulated by ATP and inhibited by tannic acid (100 μM). Cytotoxicity was measured in MDCK using the MTT assay [3(4,5-dimethyl-thiazol-2-yl)-2,5-diphenyl tetrazolium bromide] by standard procedures.

mice = assay: Urinary concentration in mice; type: in vivo, mouse
Protocol: In some studies, mice were placed on low, normal or […] diets (4%, 20% or 40% casein, Harlan Labs.) for 1 week prior study of dDAVP effects. […] Urea concentration was determined by a colorimetric enzymatic assay as described above. Measurements were also done in the absence of dDAVP in which urine was collected during free access to food and water. […]

[1] = In vitro metabolic stability in hepatic microsomes; type: in vitro ADME, rat; conditions: for % Remaining: parent molecule after 30 min incubation with rat liver microsomes; for % Remaining after 10 min incubation with liver microsomes: compound 5 μM
Protocol: Compounds, each at 5 μM, were incubated for specified times at 37° C. with rat liver microsomes (1 mg protein/ml; Sigma-Aldrich, St. Louis, Mo.) in potassium phosphate buffer (100 mM) containing 1 mM NADPH. The mixture was then chilled on ice, and 0.5 ml of ice-cold ethyl acetate was added.

[2] = LC/MS analysis of compound in mouse kidney, blood and urine; conditions: for many hours after intraperitoneal bolus 400 μg
Protocol: In some studies, mice were placed on low, normal or […] diets (4%, 20% or 40% casein, Harlan Labs.) for 1 week prior study of dDAVP effects. […] Urea concentration was determined by a colorimetric enzymatic assay as described above. Measurements were also done in the absence of dDAVP in which urine was collected during free access to food and water.
Kidneys were weighed, mixed with acetic acid (100 μL per 1 g tissue) and ethyl acetate (10 mL per 1 g tissue), and homogenized.

CFTR = biological target: T2, CFTR (Homo sapiens, UniProt P13569); assay: CFTR chloride conductance by short-circuit current; type: cell-based; conditions: 20 μM
T2 construct: expressed in transfected cells

UT-B = biological target: T3, UT-B (Mus musculus, UniProt Q8VHL0); assay: Erythrocyte lysis assay of UT-B inhibition; type: cell-based; parameters: Screening was performed using mouse erythrocytes, which strongly express UT-B; endogenous in cells; host or cells: erythrocytes in whole blood of wild-type CD1 mice; conditions: read-out: IC50
T3 sequence (Q8VHL0 1-384): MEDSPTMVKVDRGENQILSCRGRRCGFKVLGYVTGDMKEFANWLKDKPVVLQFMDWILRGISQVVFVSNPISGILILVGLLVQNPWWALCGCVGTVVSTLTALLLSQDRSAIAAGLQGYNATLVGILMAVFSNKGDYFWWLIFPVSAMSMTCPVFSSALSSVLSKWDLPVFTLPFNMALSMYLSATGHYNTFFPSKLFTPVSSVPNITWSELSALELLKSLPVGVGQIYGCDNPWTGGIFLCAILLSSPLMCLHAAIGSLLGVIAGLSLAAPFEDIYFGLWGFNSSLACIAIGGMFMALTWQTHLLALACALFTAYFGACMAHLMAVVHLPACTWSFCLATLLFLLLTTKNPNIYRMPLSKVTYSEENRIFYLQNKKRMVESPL
Summary of the method: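 Mouse erythrocytes (expressing UT-B and AQP1) subjected to an outward acetamide gradient; UT-B inhibition blocks acetamide efflux, causing swelling and lysis. Lysis quantified by absorbance at 710 nm within 5 min of hypo-osmolar shock.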

[3] = Table 2, synthesized inhibitors, red blood cell lysis assay (n = 3), single-site saturation model
[4] = Table 1, commercially available analogues, erythrocyte lysis assay

T2 sequence (P13569 whole entry): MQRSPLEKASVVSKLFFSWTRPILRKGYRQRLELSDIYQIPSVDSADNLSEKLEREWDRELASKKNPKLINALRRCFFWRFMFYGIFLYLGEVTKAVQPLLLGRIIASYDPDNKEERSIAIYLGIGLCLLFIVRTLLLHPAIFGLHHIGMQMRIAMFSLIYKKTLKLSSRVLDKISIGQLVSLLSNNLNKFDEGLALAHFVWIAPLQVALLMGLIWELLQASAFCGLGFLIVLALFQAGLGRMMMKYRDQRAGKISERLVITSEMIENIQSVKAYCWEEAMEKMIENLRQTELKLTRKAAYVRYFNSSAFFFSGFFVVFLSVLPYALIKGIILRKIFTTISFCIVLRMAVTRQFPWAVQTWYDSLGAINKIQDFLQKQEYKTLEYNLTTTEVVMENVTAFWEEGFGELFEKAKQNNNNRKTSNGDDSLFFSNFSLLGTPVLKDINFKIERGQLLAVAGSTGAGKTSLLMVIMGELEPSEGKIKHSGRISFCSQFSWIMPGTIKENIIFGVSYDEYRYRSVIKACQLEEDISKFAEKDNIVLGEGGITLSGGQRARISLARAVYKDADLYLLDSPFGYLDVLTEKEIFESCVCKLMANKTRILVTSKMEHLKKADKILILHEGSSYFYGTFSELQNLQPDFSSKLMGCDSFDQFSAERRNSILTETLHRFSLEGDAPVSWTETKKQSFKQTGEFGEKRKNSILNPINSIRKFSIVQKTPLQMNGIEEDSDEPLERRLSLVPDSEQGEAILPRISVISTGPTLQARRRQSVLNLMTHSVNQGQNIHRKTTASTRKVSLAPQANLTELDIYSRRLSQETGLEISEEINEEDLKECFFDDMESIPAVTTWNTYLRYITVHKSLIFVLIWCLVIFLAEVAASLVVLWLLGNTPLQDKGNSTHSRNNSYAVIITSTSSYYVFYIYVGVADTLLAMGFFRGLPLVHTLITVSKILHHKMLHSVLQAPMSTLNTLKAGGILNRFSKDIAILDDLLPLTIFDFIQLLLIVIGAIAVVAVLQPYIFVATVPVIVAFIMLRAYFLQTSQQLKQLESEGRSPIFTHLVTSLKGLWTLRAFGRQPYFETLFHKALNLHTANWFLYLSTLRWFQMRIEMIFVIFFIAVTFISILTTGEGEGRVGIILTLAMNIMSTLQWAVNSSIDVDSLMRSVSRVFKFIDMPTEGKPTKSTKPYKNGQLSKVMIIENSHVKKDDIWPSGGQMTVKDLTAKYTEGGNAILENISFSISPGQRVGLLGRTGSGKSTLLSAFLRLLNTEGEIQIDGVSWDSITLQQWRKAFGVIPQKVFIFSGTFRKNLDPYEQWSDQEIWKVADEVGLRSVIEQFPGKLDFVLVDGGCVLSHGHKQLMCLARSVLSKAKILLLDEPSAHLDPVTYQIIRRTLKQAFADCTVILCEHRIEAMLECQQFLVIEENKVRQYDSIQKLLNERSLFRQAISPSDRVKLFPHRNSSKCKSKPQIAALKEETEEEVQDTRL

In the case of `O=C(OC[C@H]1O[C@@H](OC(=O)c2cc(O)c(O)c(OC(=O)c3cc(O)c(O)c(O)c3)c2)[C@H](OC(=O)c2cc(O)c(O)c(OC(=O)c3cc(O)c(O)c(O)c3)c2)[C@@H](OC(=O)c2cc(O)c(O)c(OC(=O)c3cc(O)c(O)c(O)c3)c2)[C@@H]1OC(=O)c1cc(O)c(O)c(OC(=O)c2cc(O)c(O)c(O)c2)c1)c1cc(O)c(O)c(OC(=O)c2cc(O)c(O)c(O)c2)c1` [tannic acid, reference compound], the “ATP-induced current (TMEM16A)” value (TMEM16A) is reported as “blocked”.
For `CC(F)(F)c1ccc(S(=O)(=O)c2nnn3c2nc(NCc2cccs2)c2sccc23)cc1` [Compound 3k, {3-[4-(1,1-Difluoro-ethyl)-benzenesulfonyl]-thieno[2,3-e][1,2,3]triazolo[1,5-a]pyrimidin-5-yl}-thiophen-2-ylmethyl-amine], the “reduction of urine osmolality” value (mice; 400 μg intraperitoneal, dDAVP 1 h later, vs formulation alone) was “approximately 0.5 Osm/kg H2O”, the “t1/2 for disappearance in hepatic microsomes” value ([1]; hepatic microsomes, NADPH) was “approximately 120 min” and the “% Remaining” value [1] was 96%. For the same compound, the “stability in vitro compared to UTBinh 14” value ([1]; ratio of microsomal t1/2) was “approximately 40 fold” and the “concentrations in blood, kidney and urine” value [2] was under 1 µM.
In the case of CFTRinh-172 [reference compound], the CFTR chloride current (CFTR) is reported as “blocked”.
In the case of “[1-deamino-8-D-arginine]-vasopressin [dDAVP, reference compound]”, the “urine osmolality after dDAVP” value (mice; control (formulation alone) mice) is reported as over 3 Osm/kg H2O and the “urine osmolality following dDAVP” value (mice; dDAVP 1 μg/kg intraperitoneal, over several hours) is reported as over 3000 mosm/kg H2O.
In the case of `O=S(=O)(c1cccs1)c1nnn2c1nc(NCc1cccs1)c1sccc12` [Compound 3g, [3-(Thiophene-2-sulfonyl)-thieno[2,3-e][1,2,3]triazolo[1,5-a]pyrimidin-5-yl]-thiophen-2-ylmethyl-amine], the IC50 (UT-B; [3]) is reported as 196 nM and the “% Remaining” value [1] is reported as under 5%.
In the case of `CCOCCCNc1nc2c(S(=O)(=O)c3ccc(C)c(C)c3)nnn2c2ccsc12` [Compound 2aw, {3-[3,4-dimethyl-benzenesulfonyl]-thieno[2,3-e][1,2,3]triazolo[1,5-a]pyrimidin-5-yl}-3-ethoxylpropyl-amine], the IC50 (UT-B; [4]) is reported as 520 nM and the “% Remaining after 10 min incubation with liver microsomes” value ([1]; NADPH) is reported as 2%.
In the case of `CCCCNc1nc2c(S(=O)(=O)c3cc(C)ccc3C)nnn2c2ccsc12` [Compound 2cn], the IC50 (UT-B; [4]) is reported as 865 nM and the “% Remaining after 10 min incubation with liver microsomes” value ([1]; NADPH) is reported as 57%.
With `CC(C)c1ccc(S(=O)(=O)c2nnn3c2nc(NCc2cccs2)c2sccc23)cc1` [Compound 3a, [3-(4-Isopropylbenzenesulfonyl)-thieno[2,3-e][1,2,3]triazolo[1,5-a]pyrimidin-5-yl]-thiophen-2-ylmethyl-amine] the IC50 (UT-B; [4]) was 125 nM, the IC50 (UT-B; [3]) was 153 nM and the “% Remaining” value [1] was under 5%.
